Entries after “also recorded” stand apart in the source; their conditions may differ.

Data set [1] relates to ERα negative MDA-MB-231 cells. In words: MDA-MB-231 cell growth / toxicity assay (MTS). In kind it is cell-based, human. To be noted: for effect on growth of MDA-MB-231 cells (toxicity): up to 30 μM, Example 1 assays (1 day / 5 days); for effect on growth of ER negative MDA-MB-231 cells: all concentrations. As to the method:
ERα negative MDA-MB-231 human breast cancer cells were used to test for generalized toxicity of the test compounds. To parallel the reporter gene assays in stably transfected T47D breast cancer cells, 5,000 MDA-MB-231 cells per well were plated in a 96 well plate. The cells were maintained in the medium described above for the T47D cells. One day after plating, the same concentration of test compound used in the reporter gene assay (up to 30 μM) was added. After 24 h the MTS assay was carried out as described above. A more stringent toxicity assay parallels the assay for inhibition of estrogen-dependent growth of BG-1 cells. 250 MDA-MB-231 cells were plated per well and maintained and assayed as described for the BG-1 cells. Several compounds without detectable toxicity in the 24-h assay inhibited MDA-MB-231 cell growth in the 5-6 day assay.
Assays for Cell Growth and Viability. Cells were maintained in the media listed above containing CD-treated serum for at least 4 days prior to the experiment. To minimize cell aggregation, MCF-7 cells were harvested in 10 mM Hepes, pH 7.4, 1 mM EDTA. Other cell lines were harvested in trypsin-EDTA. 1,000 cells were plated into each well of a 96 well plate. For slow growing ZR-75 cells, 2,000 cells were plated/well. The cells were maintained in medium containing CD-treated serum for 24 hours. At 24 hours the medium was changed and E2 and DMSO vehicle or TPSF in DMSO was added. The medium was replaced after 2 days (except for BT474 cells whose medium was not changed). After 4 days viable cells were determined using a cell viability test, Promega CellTiter 96 Aqueous One Solution Cell Proliferation Assay (MTS) (Promega, Wis.).

Data set [2] deals with T1, human androgen receptor (AR) binding to flARE (Homo sapiens, UniProt P10275).
T1 construct: AR assays contained 1 nM flcARE and 50 nM full-length wild-type AR; FLAG; made in house
T1 sequence (P10275 1-920): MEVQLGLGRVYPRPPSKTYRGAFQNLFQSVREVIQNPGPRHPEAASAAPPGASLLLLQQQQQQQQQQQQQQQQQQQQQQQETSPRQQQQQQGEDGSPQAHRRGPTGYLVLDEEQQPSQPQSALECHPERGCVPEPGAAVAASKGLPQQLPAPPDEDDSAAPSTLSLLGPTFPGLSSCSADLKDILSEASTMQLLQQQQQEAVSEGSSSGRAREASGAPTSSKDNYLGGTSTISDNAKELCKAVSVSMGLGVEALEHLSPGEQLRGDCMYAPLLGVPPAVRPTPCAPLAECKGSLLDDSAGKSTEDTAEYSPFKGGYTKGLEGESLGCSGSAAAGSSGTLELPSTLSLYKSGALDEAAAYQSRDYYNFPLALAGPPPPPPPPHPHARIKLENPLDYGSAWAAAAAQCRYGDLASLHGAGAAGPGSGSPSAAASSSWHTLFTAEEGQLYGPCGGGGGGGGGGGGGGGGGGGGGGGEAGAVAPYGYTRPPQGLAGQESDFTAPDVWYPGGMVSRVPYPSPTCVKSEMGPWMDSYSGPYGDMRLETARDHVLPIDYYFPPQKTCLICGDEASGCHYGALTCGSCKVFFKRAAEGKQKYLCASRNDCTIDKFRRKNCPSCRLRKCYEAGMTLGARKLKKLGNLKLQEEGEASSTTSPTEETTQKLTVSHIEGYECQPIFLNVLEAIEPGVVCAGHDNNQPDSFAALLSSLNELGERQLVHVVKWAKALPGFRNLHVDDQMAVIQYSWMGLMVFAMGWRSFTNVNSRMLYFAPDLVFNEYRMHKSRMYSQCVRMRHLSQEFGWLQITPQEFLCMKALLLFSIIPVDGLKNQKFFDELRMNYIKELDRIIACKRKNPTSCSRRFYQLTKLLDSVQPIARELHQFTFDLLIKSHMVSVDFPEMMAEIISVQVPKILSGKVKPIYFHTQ
Briefly: FAMA: inhibition of AR binding to flcARE. To be noted: binding to HRE, 5 concentrations 0.5-10 μM, sequential method. The procedure:
Dose response curves for selected compounds were carried out as described for the HTS screen except that each well contained the indicated concentration of test compound. PR assays were carried out in the same buffer used for ERα assays and contained 1 nM flcPRE and 11 nM PR-B and 100 nM progesterone. The buffer used for AR was similar but also contained 5 μM ZnCl, 5 mM NaF, 0.6 μM CHAPS and 100 nM dihydrotestosterone. AR assays contained 1 nM flcARE and 50 nM full-length wild-type AR.
Specificity was evaluated in dose-response studies by quantitative FAMA using purified full-length human PR binding to a fluorescein-labeled progesterone/glucocorticoid response element (flPRE) and full-length human androgen receptor (AR) binding to a fluorescein-labeled androgen response element (flARE).

In the case of `CN1CCC(C#N)c2ccccc21` (centres unmarked) [Compound 1529], the “reduction of growth of MDA-MB-231 cells” value in data set [1] (30 μM, 5 days) is given as 50-60%. Further, the “effect on growth of MDA-MB-231 cells” value in data set [1] (1-20 μM, 5 days) is on record as “unaffected”. Besides, the half-maximal inhibitory concentration (IC50) in data set [2] came out at 5.2 µM.

As for `Cn1c(=O)c2nc(CSCc3ccccc3)[nH]c2n(C)c1=O` [Compound 95910, 8-Benzylsulfanylmethyl-1,3-dimethyl-3,7-dihydro-purine-2,6-dione], the results for the “effect on growth of MDA-MB-231 cells (toxicity)” value in data set [1] and in data set [1] (listed as TPBM) were “No toxicity” and “had no effect; also recorded: no inhibition”, respectively. Moreover, the IC50 in data set [2] came to 7.6 µM.

`CN(C)CCCn1c2c3ccccc3ccc2c2oc(=O)c3ccccc3c21` [Compound 638432] had an IC50 in data set [2] of 5 µM.

Take `Cn1c(=S)c2[nH]c(SCCCC(=O)c3ccc(F)cc3)nc2n(C)c1=O` [TPSF, Butyrophenone, p-fluoro-4-(1,2,3,6,-tetrahydro-1,3-dimethyl-2-oxo-6-thionopurin-8-ylthio)]: the IC50 in data set [1] (Homo sapiens, MDA-MB-231, 96 h, 4 days, MTS, read-out: IC50 for inhibition of MDA-MB-231 (ER Neg. cells) cell growth) is over 30 µM. Moreover, the “inhibition of growth of MDA-MB-231 cells” value in data set [1] (all concentrations tested, including 30 μM, 4 days) amounted to 0%. Besides, the “effect on growth of ER negative MDA-MB-231 cells” value in data set [1] (including 30 μM, 4 days) is given as “did not inhibit growth; also recorded: lacks toxicity”; in data set [1] (including 30 μM, 4 days, listed as 97998/TPSF), “did not inhibit growth; also recorded: does not inhibit growth”.

For orientation: IC50 means the concentration that gives 50% inhibition.

(Values after patent publication US8871751B2, “Compositions and methods relating to nuclear hormone and steroid hormone receptors including inhibitors of estrogen receptor alpha-mediated gene expression and inhibition of breast cancer” (The Board of Trustees of the University of Illinois, priority 2008, dated 2014).)
